Test results reported in patent US5629343A, “N-(mercaptoacyl) peptidyl derivatives as antidegenerative agents” (Merck & Co., Inc., priority 1995, dated 1997).
Like-named read-outs stand apart in the source and are kept apart here. Blank lines part the entries; values can stand above or below the compound they belong to.

What was measured:
stromelysin = stromelysin (Homo sapiens, UniProt P08254); assay: Inhibition of stromelysin: hydrolysis of substance P, semicontinuous HPLC-based assay; format: biochemical; settings: for IC50: substrate substance P
[1] = biological target: T1, human rheumatoid synovial collagenase (Homo sapiens, UniProt P03956); settings: cited from earlier work
T1 sequence (P03956 100-469): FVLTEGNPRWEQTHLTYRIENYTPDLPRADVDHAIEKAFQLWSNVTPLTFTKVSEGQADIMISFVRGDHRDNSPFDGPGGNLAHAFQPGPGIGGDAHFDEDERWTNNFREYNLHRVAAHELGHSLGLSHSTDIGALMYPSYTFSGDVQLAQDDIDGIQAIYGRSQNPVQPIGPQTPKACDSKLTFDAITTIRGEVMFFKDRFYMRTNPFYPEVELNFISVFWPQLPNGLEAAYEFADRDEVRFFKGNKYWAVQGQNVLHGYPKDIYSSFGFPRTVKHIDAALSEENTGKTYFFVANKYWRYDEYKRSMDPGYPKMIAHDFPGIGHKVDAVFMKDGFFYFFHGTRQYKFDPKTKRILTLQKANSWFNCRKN

[2] = biological target: rabbit bone proteoglycanase (Oryctolagus cuniculus, UniProt P28863); settings: cited from earlier work
[3] = higher Rf isomer (diastereomer), read-out: IC50 ± S.E. Higher Rf isomer
[4] = lower Rf isomer (diastereomer), read-out: IC50 ± S.E. Lower Rf isomer

stromelysin, sequence (P08254 100-477): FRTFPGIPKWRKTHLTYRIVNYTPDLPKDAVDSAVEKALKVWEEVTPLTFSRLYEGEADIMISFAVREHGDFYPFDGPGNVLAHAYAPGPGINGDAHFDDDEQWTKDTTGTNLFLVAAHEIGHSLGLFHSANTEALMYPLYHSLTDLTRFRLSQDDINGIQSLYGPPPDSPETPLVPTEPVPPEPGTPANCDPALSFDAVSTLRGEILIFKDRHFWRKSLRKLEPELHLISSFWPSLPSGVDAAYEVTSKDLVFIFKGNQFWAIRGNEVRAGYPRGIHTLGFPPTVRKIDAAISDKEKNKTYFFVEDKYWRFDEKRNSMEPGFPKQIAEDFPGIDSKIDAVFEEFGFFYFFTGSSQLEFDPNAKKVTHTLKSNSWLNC
rabbit bone proteoglycanase, sequence (P28863 101-478): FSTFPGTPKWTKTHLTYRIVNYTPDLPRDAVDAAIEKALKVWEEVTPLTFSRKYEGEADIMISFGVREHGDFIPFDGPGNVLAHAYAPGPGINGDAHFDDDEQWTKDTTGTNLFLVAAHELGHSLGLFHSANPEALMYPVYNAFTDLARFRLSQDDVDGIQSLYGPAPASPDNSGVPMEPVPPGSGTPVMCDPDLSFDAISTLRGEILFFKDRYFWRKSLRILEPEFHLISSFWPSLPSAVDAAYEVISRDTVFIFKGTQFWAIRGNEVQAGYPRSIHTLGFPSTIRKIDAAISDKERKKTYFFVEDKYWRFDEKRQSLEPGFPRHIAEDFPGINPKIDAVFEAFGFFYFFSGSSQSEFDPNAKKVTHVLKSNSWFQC

SMILES: CC(C)C[C@H](NC(=O)C(CS)CCc1ccccc1)C(N)=O (stereo partly drawn) [Compound 1a, N-(2-Thiomethyl-4-phenylbutanoyl)-(L)-leucinamide]
IC50 (stromelysin; [3]): 3300 ± 400 nM
IC50 (stromelysin; [4]): 960 ± 100 nM

SMILES: CC(C)C[C@H](NC(=O)C(CS)CCc1ccccc1)C(=O)Nc1ccccc1 (stereo partly drawn) [Compound 1b, N-(2-Thiomethyl-4-phenylbutanoyl)-(L)-leucine, N-phenylamide]
IC50 (stromelysin; [3]): 1600 ± 500 nM
IC50 (stromelysin; [4]): 490 ± 100 nM

SMILES: NC(=O)[C@H](Cc1ccccc1)NC(=O)C(CS)CCc1ccccc1 (stereo partly drawn) [Compound 1e, N-(2-Thiomethyl-4-phenylbutanoyl)-(L)-phenylalaninamide]
IC50 (stromelysin; [3]): 3100 ± 500 nM
IC50 (stromelysin; [4]): 1900 ± 600 nM

SMILES: CNC(=O)[C@H](Cc1ccc(OC)cc1)NC(=O)[C@H](CC(C)C)NC(CCNC(=O)OCc1ccccc1)C(=O)O (stereo partly drawn) [N-[3-(benzyloxycarbonyl)amino-1-carboxy-n-propyl]-L-leucyl-O-methyl-L-tyrosine, N-methylamide]
IC50 [1]: 800 nM
IC50 [2]: 500 nM

The remaining lines, values ahead:

IC50 (stromelysin; [3]): 7300 ± 3300 nM
IC50 (stromelysin; [4]): 2500 ± 1200 nM
SMILES: CC(C)C[C@H](NC(=O)C(CS)CCc1ccccc1)C(=O)NCc1ccccc1 (stereo partly drawn) [Compound 1c, N-(2-Thiomethyl-4-phenylbutanoyl)-(L)-leucine, N-benzylamide]

IC50 (stromelysin; [3]): 1100 ± 300 nM
IC50 (stromelysin; [4]): 2200 ± 800 nM
SMILES: O=C(N[C@@H](Cc1ccccc1)C(=O)Nc1ccccc1)C(CS)CCc1ccccc1 (stereo partly drawn) [Compound 1f, N-(2-Thiomethyl-4-phenylbutanoyl)-(L)-phenylalanine, N-phenylamide]

% inh. Higher Rf isomer (stromelysin; higher Rf isomer, @ 1.4 μM): 63 % inh.
% inh. Lower Rf isomer (stromelysin; lower Rf isomer, @ 3.3 μM): 98 % inh.
SMILES: O=C(N[C@@H](Cc1ccccc1)C(=O)NCc1ccccc1)C(CS)CCc1ccccc1 (stereo partly drawn) [Compound 1g, N-(2-Thiomethyl-4-phenylbutanoyl)-(L)-phenylalanine, N-benzylamide]

IC50 (stromelysin; [3]): 4100 ± 350 nM
SMILES: O=C(O)CCNC(=O)[C@H](Cc1ccccc1)NC(=O)C(CS)CCc1ccccc1 (stereo partly drawn) [Compound 1h, N-(2-Thiomethyl-4-phenylbutanoyl)-(L)-phenylalanine-β-alanine]
